Measurements published in ChEMBL document CHEMBL4699607, “Design, synthesis, and computational validation of novel compounds selectively targeting HER2-expressing breast cancer” (Bioorg Med Chem Lett, 2020).
Calls of active or inactive are those of the source. The rule behind the calls is not given here.

Assays:
MCF7 [1] = test: Cytotoxicity against human MCF-7 assessed as reduction cell viability at 10 uM by SRB assay; type: functional
MDA-MB-231 = test: Cytotoxicity against human MDA-MB-231 cells assessed as reduction in cell viability at 10 uM by SRB assay; type: functional, cell-based
MCF7 [2] = test: Cytotoxicity against human MCF-7 assessed as reduction in cell viability by SRB assay
[3] = molecular target: Receptor tyrosine-protein kinase erbB-2 (Homo sapiens) (UniProt P04626); test: Inhibition of HER2 (unknown origin) at 10 uM by ELISA
Receptor tyrosine-protein kinase erbB-2 (Homo sapiens), sequence (P04626 whole entry): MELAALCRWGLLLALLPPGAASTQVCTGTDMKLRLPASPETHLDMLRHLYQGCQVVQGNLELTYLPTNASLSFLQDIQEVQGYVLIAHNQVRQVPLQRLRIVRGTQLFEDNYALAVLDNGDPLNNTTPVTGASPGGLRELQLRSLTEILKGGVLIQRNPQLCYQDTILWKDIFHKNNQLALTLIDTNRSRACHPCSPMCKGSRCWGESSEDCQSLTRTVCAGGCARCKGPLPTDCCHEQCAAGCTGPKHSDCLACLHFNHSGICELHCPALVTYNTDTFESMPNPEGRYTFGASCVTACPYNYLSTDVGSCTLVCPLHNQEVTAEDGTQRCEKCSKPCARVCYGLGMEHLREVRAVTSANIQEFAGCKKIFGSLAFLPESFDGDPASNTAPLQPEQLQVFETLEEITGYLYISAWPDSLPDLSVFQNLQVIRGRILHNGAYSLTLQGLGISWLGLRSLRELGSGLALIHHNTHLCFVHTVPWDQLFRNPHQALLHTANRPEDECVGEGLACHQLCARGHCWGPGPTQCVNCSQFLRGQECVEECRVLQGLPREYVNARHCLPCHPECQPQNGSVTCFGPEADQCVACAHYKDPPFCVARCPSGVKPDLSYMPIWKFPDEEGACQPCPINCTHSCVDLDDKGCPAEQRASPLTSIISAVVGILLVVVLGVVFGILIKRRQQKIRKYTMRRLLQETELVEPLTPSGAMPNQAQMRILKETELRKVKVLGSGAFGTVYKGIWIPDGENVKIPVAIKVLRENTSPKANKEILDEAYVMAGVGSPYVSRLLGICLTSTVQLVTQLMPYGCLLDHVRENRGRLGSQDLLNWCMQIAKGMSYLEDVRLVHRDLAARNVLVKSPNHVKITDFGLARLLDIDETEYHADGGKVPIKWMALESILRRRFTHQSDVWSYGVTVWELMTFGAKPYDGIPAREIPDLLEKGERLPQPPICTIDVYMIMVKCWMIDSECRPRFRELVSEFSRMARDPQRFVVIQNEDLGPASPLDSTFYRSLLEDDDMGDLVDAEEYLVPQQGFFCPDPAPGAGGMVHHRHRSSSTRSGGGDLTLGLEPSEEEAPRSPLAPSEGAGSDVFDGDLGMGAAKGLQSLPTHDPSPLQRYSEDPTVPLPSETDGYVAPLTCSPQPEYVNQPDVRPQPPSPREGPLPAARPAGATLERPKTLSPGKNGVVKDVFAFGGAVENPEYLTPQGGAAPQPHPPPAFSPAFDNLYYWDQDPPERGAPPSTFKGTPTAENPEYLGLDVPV

SK-BR-3 [4] = test: Cytotoxicity against human SKBr3 assessed as reduction cell viability at 10 uM by SRB assay; type: functional
SK-BR-3 [5] = test: Cytotoxicity against human SKBr3 assessed as reduction in cell viability by SRB assay

With `Cc1ccc(S(=O)(=O)NC(=O)Nc2ncccc2Br)cc1` the inhibition at 10 µM (MCF7 [1]) was 11.2% and the inhibition (MDA-MB-231) was “inactive”.
`S=C(Nc1ccc(Cl)cc1Cl)Nc1ncccc1Br` showed an IC50 (MCF7 [2]) of 1300 nM, an inhibition at 10 µM (MCF7 [1]) of 72.4% and an inhibition [3] of 87%. The inhibition (MDA-MB-231) was “inactive”, the inhibition at 10 µM (SK-BR-3 [4]) was 79.7% and the IC50 (SK-BR-3 [5]) was 730 nM.
In the case of `COc1ccccc1CNC(=O)NS(=O)(=O)c1ccccc1`, the inhibition at 10 µM (MCF7 [1]) is reported as 10.3% and the inhibition (MDA-MB-231) is reported as “inactive”.
Compound `S=C(Nc1ccc(Cl)cc1Br)Nc1ncccc1Br` has an IC50 (MCF7 [2]) of 2500 nM, an inhibition at 10 µM (MCF7 [1]) of 64.1% and an inhibition [3] of 82.6%. For the same compound, the inhibition (MDA-MB-231) was “inactive”, the inhibition at 10 µM (SK-BR-3 [4]) was 74.8% and the IC50 (SK-BR-3 [5]) was 3400 nM.
`S=C(NCCc1ccccc1)Nc1ncccc1Br` showed an IC50 (MCF7 [2]) of 16200 nM, an inhibition at 10 µM (MCF7 [1]) of 63% and an inhibition [3] of 84.7%. For the same compound, the inhibition (MDA-MB-231) was “inactive”, the inhibition at 10 µM (SK-BR-3 [4]) was 78.8% and the IC50 (SK-BR-3 [5]) was 1110 nM.
